In patent publication US20080194462A1, “Methods and Compositions for Treatment of Autoimmune Diseases” (Peptimmune, Inc., priority 2004, published 2008):

How the values were obtained:
[1] = tested on: Non-obese diabetic (NOD) mouse; assay: Treatment of NOD mice, development of diabetes; format: in vivo; settings: 10 μg injected three times a week
Procedure: NOD mice are obtained from Jackson Laboratories, Bar Harbor, Me., and are used as an experimental system (Shi et al. (2001) Proc. Natl. Acad. Sci. USA 98: 6777-6782). These mice begin to develop diabetes at about 13-15 weeks and data are obtained after about 30 weeks to obtain data, such as a frequency of symptoms for comparison of treated and untreated groups of mice. NOD mice were treated herein with Copaxone®, and no difference was found between the untreated animals and animals treated with Copaxone®. In the experiment, 10 μg of Copaxone® was injected into mice three times a week (equivalent to the human dose on a weight ratio basis. A higher dose, 33 μg Copaxone®/mouse three times a week, is also employed. These experiments test the hypothesis that Copaxone® would be ineffective.

T cells = settings: cited from earlier work

Glatiramer acetate
difference between untreated and treated NOD mice (diabetes) [1]: no difference | proportion of an individual's T cells activated (T cells; HLA-DR restricted): 15-20% | T cell response generated through HLA-DQ molecules (T cells): little response
